Reference: patent publication US11414384B2, “P300/CBP hat inhibitors” (Constellation Pharmaceuticals, Inc., priority 2018, dated 2022)

What was measured:
[1] = system: acetylation of chromatin at H3K18 (catalyzed by p300 and CBP) in HCT-116 cells; assay: H3K18Ac MSD cellular assay; type: cell-based; conditions: 2 hr treatment, average of at least 2 replicate titrations
Procedure: Select compounds were also evaluated in a H3K18Ac MSD cellular assay that measures the ability of compounds to inhibit the acetylation of chromatin at H3K18, a process catalyzed by p300 and CBP. In a typical experiment the p300 HAT inhibitory activity inside cells of the compounds described herein was determined in accordance with the following experimental method. 20 k HCT-116 cells per well are plated in 75 μL RPMI+10% FBS media the night before treatment. Compounds plated in DMSO at 4× final concentration are resuspended in 30 μL RPMI+10% FBS, then 25 μL is combined with corresponding wells containing cells. Treated cells are incubated for 2 hr at 37° C., then lysed in 500 μL final volume and frozen at −80° C. MSD plates (Meso Scale Discovery) are coated overnight at 4° C. with 60 μL 1:500α-total histone antibody (Millipore MAB3422) in PBS. Plates are then blocked with 5% BSA in TBST shaking at RT for 1 hr, washed, and 30 μL lysate added to each well for 2 hr shaking at RT. Plates are washed and 25 μL 1:216α-H3K18ac antibody (CST 9675) in PBS added, then incubated for 1 hr shaking at RT. Plates are washed again, then 25 μL 1:1000 Sulfo-Tag goat a-rabbit antibody (Meso Scale Discovery R32Ab-1) in PBS is added for 1 hr shaking at RT. Plates are washed once more, then 150 μL 1× Read Buffer (MSD #R92TD-3) is added to all wells and read on MSD SECTOR Imager 2400 using the conventional read setup.

[2] = biological target: p300 HAT domain (residues 1287-1666) (Homo sapiens (Human), UniProt Q09472); assay: p300 HAT SPA assay (scintillation proximity assay, acetylation of biotinylated H3(1-21) peptide); type: biochemical; conditions: p300 HAT domain; average of at least 2 replicate titrations; read-out: P300 HAT SPA IC50
Summary of the method: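 Scintillation proximity readout of acetylated biotin-H3(1-21) captured on streptavidin plates after 1.5 hr at RT; enzyme was Ni2+/anion-exchange-purified HAT domain in 20 mM Hepes pH 7.5. Inhibitor IC50s calculated from the data.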

p300 HAT domain (residues 1287-1666), sequence (Q09472 1287-1666): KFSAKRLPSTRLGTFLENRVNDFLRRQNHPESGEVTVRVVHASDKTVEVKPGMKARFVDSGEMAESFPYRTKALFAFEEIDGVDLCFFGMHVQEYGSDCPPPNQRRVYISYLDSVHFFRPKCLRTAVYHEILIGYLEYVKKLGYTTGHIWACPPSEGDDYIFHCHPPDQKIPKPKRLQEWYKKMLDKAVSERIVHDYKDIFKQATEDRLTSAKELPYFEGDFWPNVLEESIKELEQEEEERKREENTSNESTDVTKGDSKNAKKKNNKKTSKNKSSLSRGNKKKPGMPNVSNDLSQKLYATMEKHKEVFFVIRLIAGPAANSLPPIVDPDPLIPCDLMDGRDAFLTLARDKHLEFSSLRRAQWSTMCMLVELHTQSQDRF

| SMILES | EC50 ([1]; Homo sapiens, HCT-116, 2 h) [nM] | IC50 [2] [nM] | EC50 [1] [nM] |
| --- | --- | --- | --- |
| CCN1CC(NC(=O)c2ccc3c(C(=O)C(NCCc4ccc(C#N)cc4)c4ccccc4)c[nH]c3c2)C1 (single isomer, unassigned) [163 Isomer 2] | > 1000 | 41.9 | – |
| Cc1ccc(-c2ccc3c(C(=O)C(NCCc4ccc(Cl)cc4)c4ccccc4)c[nH]c3c2)cn1 (single isomer, unassigned) [88 Isomer 2] | 379 | 603 | – |
| CC(C)(O)CNC(=O)c1ccc2c(C(=O)C(NCCc3ccc(C#N)cc3)c3ccccc3)c[nH]c2c1 (single isomer, unassigned) [161 Isomer 2] | 78.1 | 95.1 | – |
| CC(CNC(C(=O)c1c[nH]c2ccccc12)c1ccccc1)c1ccc(Cl)cc1 (single isomer, unassigned) [26 Isomer 3] | – | 3790 | 6110 |
| Cn1cc(-c2ccc3c(C(=O)C(NCCc4ccc(C#N)cc4)c4ccccc4)c[nH]c3c2)nn1 (single isomer, unassigned) [114 Isomer 2] | 92.6 | 19 | – |
| N#Cc1ccc(CCNC(C(=O)c2c[nH]c3cc(-n4ccnc4)ccc23)c2ccccc2)cc1 (single isomer, unassigned) [120 Isomer 2] | – | 172 | 73.1 |
| N#Cc1ccc(CCNC(C(=O)c2cnn3cc(-c4cn[nH]c4)ccc23)c2ccccc2)cc1 (single isomer, unassigned) [99 Isomer 2] | 21.6 | 15.6 | – |
| Cc1ccc2c(C(=O)C(NCCc3ccc(S(N)(=O)=O)cc3)c3ccccc3)c[nH]c2c1 (single isomer, unassigned) [56 Isomer 2] | 1440 | 3100 | – |
| CC(Cc1ccc(Cl)cc1)NC(C(=O)c1c[nH]c2cc(-c3cnn(C)c3)ccc12)c1ccccc1 (single isomer, unassigned) [92 Isomer 3] | 109 | 164 | – |
| COc1cccc2c(C(=O)[C@@H](NCCc3ccc(S(N)(=O)=O)cc3)c3ccccc3)c[nH]c12 (single isomer, unassigned) [144 Isomer 2] | 1380 | 1410 | – |
| O=C(c1c[nH]c2ccccc12)C(NCCc1ccc(OC(F)(F)F)cc1)c1ccccc1 (single isomer, unassigned) [40 Isomer 2] | 4010 | 1310 | – |
| CCNC(=O)c1ccc2c(C(=O)[C@@H](NCCc3ccc(C#N)cc3)c3ccccc3)c[nH]c2c1 (single isomer, unassigned) [146 Isomer 1] | – | 786 | 401 |
| CN1CCN(c2ccc3c(C(=O)C(NCCc4ccc(S(N)(=O)=O)cc4)c4ccccc4)c[nH]c3c2)CC1 (single isomer, unassigned) [124 Isomer 2] | 429 | 566 | – |
| O=C(c1c[nH]c2cc(-c3cccnn3)ccc12)C(NCCc1ccc(Cl)cc1)c1ccccc1 (single isomer, unassigned) [112 Isomer 2] | 42.6 | 136 | – |
| NC(=O)c1ccc(CCNC(C(=O)c2c[nH]c3cc(-n4ccnc4)ccc23)c2ccccc2)cc1 (single isomer, unassigned) [181 Isomer 1] | 243 | 642 | – |
| N#Cc1ccc(CCNC(C(=O)c2c[nH]c3cc(-c4cnn(CCO)c4)ccc23)c2ccccc2)cc1 (single isomer, unassigned) [95 Isomer 2] | 61.2 | 46 | – |
| CCNc1ccc(CCNC(C(=O)c2c[nH]c3ccccc23)c2ccccc2)cn1 (single isomer, unassigned) [53 Isomer 2] | 3470 | 4290 | – |
| Cn1cc(-c2ccc3c(C(=O)C(NCCc4ccc(S(N)(=O)=O)cc4)c4ccccc4)c[nH]c3c2)nn1 (single isomer, unassigned) [116 Isomer 2] | 148 | 413 | – |
| CNC(=O)c1ccc2c(C(=O)C(NCCc3ccc(Cl)cc3Cl)c3ccccc3)c[nH]c2c1 (single isomer, unassigned) [151 Isomer 2] | 53.5 | 101 | – |

| SMILES | EC50 ([1]; Homo sapiens, HCT-116, 2 h) [nM] | IC50 [2] [nM] | EC50 [1] [nM] |
| --- | --- | --- | --- |
| Cn1cc(-c2ccc3c(C(=O)C(NCCc4ccc(C(N)=O)cc4)c4ccccc4)cnn3c2)cn1 (single isomer, unassigned) [179 Isomer 1] | 192 | 302 | – |
| Cn1cc(-c2ccc3c(C(=O)C(NCCc4ccc(S(N)(=O)=O)cc4)c4ccccc4)c[nH]c3c2)cn1 (single isomer, unassigned) [66 Isomer 2] | 43.3 | 281 | – |
| CC(CNC(C(=O)c1c[nH]c2ccccc12)c1ccccc1)c1ccc(Cl)cc1 (single isomer, unassigned) [26 Isomer 4] | – | 204 | 139 |
| CN1CCN(c2ccc3c(C(=O)C(NCCc4ccc(C#N)cc4)c4ccccc4)c[nH]c3n2)CC1 (single isomer, unassigned) [121 Isomer 2] | 122 | 82 | – |
| Cn1cc(-c2ccc3c(C(=O)C(NCCc4ccc(S(N)(=O)=O)cc4)c4ccccc4)cnn3c2)cn1 (single isomer, unassigned) [101 Isomer 2] | 47.1 | 59.2 | – |
| CS(=O)(=O)CCCNC(=O)c1ccc2c(C(=O)C(NCCc3ccc(C#N)cc3)c3ccccc3)c[nH]c2c1 (single isomer, unassigned) [175 Isomer 2] | 184 | 44 | – |
| Cc1ccc(CCNC(C(=O)c2c[nH]c3ccccc23)c2ccccc2)cc1 (single isomer, unassigned) [38 Isomer 2] | 1690 | 698 | – |
| CNC(=O)CCc1ccc2c(C(=O)C(NCCc3ccc(F)cc3)c3ccccc3)c[nH]c2c1 (single isomer, unassigned) [158 Isomer 1] | 641 | 1500 | – |
| O=C(c1c[nH]c2cc(-c3ccncc3)ccc12)C(NCCc1ccc(F)cc1)c1ccccc1 (single isomer, unassigned) [82 Isomer 1] | – | > 30000 | 1610 |
| Cn1cc(-c2ccc3c(C(=O)C(NCCc4ccc(C(=O)O)cc4Cl)c4ccccc4)c[nH]c3c2)cn1 (single isomer, unassigned) [142 Isomer 2] | 1200 | 81.6 | – |
| NS(=O)(=O)c1ccc(CCNC(C(=O)c2c[nH]c3cc(-n4ccnc4)ccc23)c2ccccc2)cc1 (single isomer, unassigned) [119 Isomer 2] | 232 | 580 | – |
| COCCn1cc(-c2ccc3c(C(=O)C(NCCc4ccc(C#N)cc4)c4ccccc4)c[nH]c3c2)cn1 (single isomer, unassigned) [96 Isomer 2] | 26.4 | 62 | – |
| CNC(=O)c1ccc(CCN[C@H](C(=O)c2c[nH]c3cc(-c4cnn(C)c4)ccc23)c2ccccc2)cc1 (single isomer, unassigned) [131 Isomer 2] | 101 | 1290 | – |
| Cn1cc(-c2ccc3c(C(=O)C(NCCc4ccc(C(N)=O)cc4)c4ccccc4)c[nH]c3c2)nn1 (single isomer, unassigned) [180 Isomer 2] | 219 | 370 | – |
| Cn1cc(-c2ccc3c(C(=O)C(NCCc4ccc(Cl)cc4)c4ccccc4)c[nH]c3c2)cn1 (single isomer, unassigned) [83 Isomer 2] | 74.7 | 247 | – |
| CC(Cc1ccc(Cl)cc1Cl)NC(C(=O)c1c[nH]c2cc(-c3cnn(C)c3)ccc12)c1ccccc1 (single isomer, unassigned) [97 Isomer 2] | – | 6260 | 780 |
| N#Cc1ccc(CCNC(C(=O)c2c[nH]c3cc(-n4ccnc4)ccc23)c2ccccc2)cc1 (single isomer, unassigned) [120 Isomer 1] | – | 987 | 193 |
| Cn1cnc(-c2ccc3c(C(=O)C(NCCc4ccc(C#N)cc4)c4ccccc4)c[nH]c3c2)c1 (single isomer, unassigned) [113 Isomer 2] | 34.2 | 28 | – |
| Cn1cc(-c2ccc3c(C(=O)C(NCCc4ccc(C(N)=O)cc4)c4ccccc4)c[nH]c3c2)cn1 (single isomer, unassigned) [139 Isomer 2] | 53.4 | 511 | – |
